The text below walks through data of patent US6518012B1, “Method for regulating the expression of MHC antigens and CD40 by inhibitors of histone deacetylation” (Health Research, Inc., priority 1999, dated 2003).

Data set [1] has as its system cell lines employed. In words: Toxicity of deacetylase inhibitors (lift-off, trypan-blue dye exclusion, laddering, PI/annexin-V flow cytometry). In kind it is cell-based. The note with it: TSA from 5 nM to 250 nM for 6 to 72 hr. How it is done:
Two representative DAIs, TSA and NaBu were used for this illustration. […] In some experiments, 100 U/ml γ-IFN was added with and without the deacetylase inhibitor.

For data set [2], the system named is DP and DQ isotypes of MHC class II mRNA. In words: mRNA for DP and DQ isotypes of MHC class II in SK-N-MC. The note with it: data not shown. In kind it is cell-based, human.
The test system of data set [3] is MC, Colon 26 and J558 cells. Nature of the data set: Apoptosis by flow cytometry (sub-G0 PI staining, annexin-V). In kind it is cell-based. The note with it: low concentrations of TSA employed in FIG. 8. The protocol:
(§1) To determine the effect of TSA on cell surface protein expression, the J558 cell line was subjected to flow cytometric analyses as follows. Flow cytometric analyses were conducted by standard methods using cells fixed with 1.0% paraformaldehyde and analyzed on the FACScan (Becton Dickinson). Cell cycle analyses were carried out by flow cytometry with PI staining of genomic DNA. Cells were fixed and permeablized in methanol, treated with RNaseA and analyzed for DNA content by determination of FL3-area on the FACScan. The FL3-area data were analyzed with the ModFit software for determination of the percent cells in each phase of the cell cycle. In some cases, fluorescein isothiocyanate (FITC)-conjugated antibody staining was conducted prior to PI treatment and surface staining was analyzed as a function of cell cycle phase. Apoptosis was analyzed by staining with annexin-V directly conjugated with either FITC or RPE and by sub-G0 analysis of DNA staining. […] Isotype controls were analyzed and, in each case, fell on or below the levels shown for control cells. […] Since all cells were positive for MHC class I expression, the number under the histogram represents -fold change of expression calculated from the mean channel-shift after treatment relative to untreated cells. […]
A general note: A flow cytometer gives signals particle by particle.

The subject of data set [4] is J558 cells. In words: Other cell surface markers by flow cytometry on J558 cells. The note with it: TSA treatment. In kind it is cell-based, mouse. How it is done:
as §1

Data set [5] concerns CD40. Nature of the data set: Cell surface CD40 by flow cytometry on SK-N-MC. In kind it is cell-based, human. The note with it: 50 nM TSA 48 hours.
The test system of data set [6] is MHC class I. In words: Cell surface MHC class I by flow cytometry on SK-N-MC. The note with it: 50 nM TSA 48 hours. In kind it is cell-based, human.
The test system of data set [7] is MHC class I. Nature of the data set: Cell surface MHC class I by flow cytometry on Colon 26 and J558. In kind it is cell-based, mouse. The protocol:
To determine the effect of TSA on cell surface protein expression, the J558 cell line was subjected to flow cytometric analyses as follows. Flow cytometric analyses were conducted by standard methods using cells fixed with 1.0% paraformaldehyde and analyzed on the FACScan (Becton Dickinson). Cell cycle analyses were carried out by flow cytometry with PI staining of genomic DNA. Cells were fixed and permeablized in methanol, treated with RNaseA and analyzed for DNA content by determination of FL3-area on the FACScan. The FL3-area data were analyzed with the ModFit software for determination of the percent cells in each phase of the cell cycle. In some cases, fluorescein isothiocyanate (FITC)-conjugated antibody staining was conducted prior to PI treatment and surface staining was analyzed as a function of cell cycle phase. Apoptosis was analyzed by staining with annexin-V directly conjugated with either FITC or RPE and by sub-G0 analysis of DNA staining. Expression levels without treatment are shown as shaded peaks, IFNγ treated cell expression is plotted by a thin line while the level of expression on TSA treated cells is represented by a heavy line. Isotype controls were analyzed and, in each case, fell on or below the levels shown for control cells. […] Since all cells were positive for MHC class I expression, the number under the histogram represents -fold change of expression calculated from the mean channel-shift after treatment relative to untreated cells. […] Of the 13 markers analyzed on J558 cells, only class I, II and CD40 were enhanced, while levels of several non-expressed antigens were not elicited (including CD25, B7 integrin, CD40L, H2K^k and IA^k) while other markers, which were expressed, were not altered (including CD44, CD54, CD80, CD86 and CD119) by TSA treatment. […] The separation of control and IFNγ curves in the CD40, J558 experiment depicted in FIG. 8 represents a mean channel fluorescence difference of only 1.3 and was not seen on independent replicates of the experiment. […]

The test system of data set [8] is MC, Colon 26 and J558 cells. Nature of the data set: Cell cycle analysis by DNA staining and flow cytometry. In kind it is cell-based. The note with it: TSA concentrations used in FIG. 8 (50 nM 48 hours MC and Colon 26; 25 nM 24 hours J558); data not shown. The protocol: as §1
The test system of data set [9] is IRF-1, GBP and MHC class I mRNA. Nature of the data set: mRNA of IRF-1, GBP and MHC class I in J558. In kind it is cell-based, mouse. The note with it: IFNγ, data not shown. The protocol:
To determine if the effect of DAIs on MHC class II was manifested in other tumors and in different species, the effect of TSA was tested on four commonly used mouse tumor models: the SaI fibrosarcoma, the Colon 26 adenocarcinoma, the J558 plasmacytoma and the P815 mastocytoma. TSA induced class II in all four mouse tumors examined, while the effects of IFNγ were variable (FIG. 4). Data presented for each cell line represents optimal incubation time and concentration of TSA and is compared with 100 U/ml of IFNγ at the same time point. Numbers over bars represents fold changes. […] Colon 26 and J558 that differed strikingly in their reactivity to IFNγ were selected for further evaluation. RT-PCR and real time PCR was used to examine induction of CIITA and IAα by TSA and IFNγ. A20, a constitutively positive B cell line was used as a positive control. The results are shown in FIGS. 5A-D. The numbers over bars represent fold changes. […] Since the classical IFNγ inducible genes IRF-1 and GBP as well as MHC class I mRNA were not induced by IFNγ in J558 (data not shown), this cell line may have a signaling defect in the IFNγ pathway. Unexpectedly however, and unlike either the MC or Colon 26 cells, TSA induced both CIITA (102-fold) and Iα (537-fold) in J558 as shown in FIGS. 5B and 5D.

For data set [10], the system named is interferon regulatory factor (IRF-1) and guanylate binding protein (GBP) mRNA. Nature of the data set: mRNA of IFNγ inducible genes IRF-1 and GBP in SK-N-MC. In kind it is cell-based, human. The note with it: IFNγ treatment, data not shown.

On to `CC(/C=C/C(=O)NO)=C\[C@@H](C)C(=O)c1ccc(N(C)C)cc1` [TSA, Trichostatin A], for which, in data set [1], the toxicity entry is given as “non toxic”. Also, the “mRNA for the DP and DQ isotypes of MHC class II” value in data set [2] is “induced”. Moreover, the apoptosis entry in data set [3] was “could not be detected”. In [4], the “expressed markers (CD44, CD54, CD80, CD86, CD119)” value was “not altered” and the “levels of non-expressed antigens (CD25, B7 integrin, CD40L, H2K^k, IA^k)” value was “not elicited”. In data set [5], the “expression of CD40 on cell surface” value is “induced expression”. For the same molecule, in data set [6], the “MHC class I expression on cell surface” value was “enhanced”. Moreover, the “MHC class I expression on cell surface” value in data set [7] (Colon 26 and J558, flow cytometry) is recorded as “enhanced”. Also, in [7] (J558, double staining with PI and antibody to class I), the “class I expression as a function of cell cycle phase” value is listed as “induced expression throughout the cell cycle”. Moreover, the “effect on the cell cycle” value in data set [8] is “did not significantly alter”.
With “IFNγ: gamma-interferon, cytokine used as comparator at 100 U/ml”, the “MHC class I expression, response to IFNγ” value in data set [7] (J558, IFNγ 100 U/ml) is given as “unresponsive”. The “IRF-1, GBP and MHC class I mRNA induction” value in data set [9] is reported as “not induced”. Besides, the “mRNA for IRF-1 and GBP” value in data set [10] was “enhanced”.
